What was measured:
[1] = target: Human JNK1α1 (Homo sapiens, UniProt P45983); assay: JNK assay in vitro, phosphorylation of GST-ATF2 (19-96) with [γ-33P] ATP; type: biochemical; details: 2 nM enzyme, 1 μM ATF2, 6 μM ATP (Km), 30° C. for 30 min, ten concentration curves; read-out: IC50 JNK1
Procedure: (§1) JNK activity was measured by phosphorylation of GST-ATF2 (19-96) with [γ-^33P] ATP. The enzyme reaction was conducted at Km concentrations of ATP and the substrate at final volume of 40 μl in buffer containing 25 mM HEPES, pH 7.5, 2 mM dithiothreitol, 150 mM NaCl, 20 mM MgCl2, 0.001% Tween® 20, 0.1% BSA and 10% DMSO. Human JNK2α2 assay contains 1 nM enzyme, 1 μM ATF2, 8 μM ATP with 1 uCi [γ-^33P] ATP. Human JNK1α1 assay contains 2 nM enzyme, 1 μM ATF2, 6 μM ATP with 1 μCi [γ-^33P] ATP. Human JNK3 (Upstate Biotech #14-501M) assay contains 2 nM enzyme, 1 μM ATF2, 4 μM ATP with 1 μCi [γ-^33P] ATP. The enzyme assay was carried out in the presence or absence of several compound concentrations. JNK and compound were pre-incubated for 10 min., followed by initiation of the enzymatic reaction by adding ATP and the substrate. The reaction mixture was incubated at 30° C. for 30 min. At the end of incubation, the reaction was terminated by transferring 25 μl of the reaction mixture to 150 μl of 10% glutathione Sepharose® slurry (Amersham #27-4574-01) containing 135 mM EDTA. The reaction product was captured on the affinity resin, and washed on a filtration plate (Millipore, MABVNOB50) with phosphate buffered saline for six times to remove free radionucleotide. The incorporation of ^33P into ATF2 was quantified on a microplate scintillation counter (Packard Topcount). Compound inhibition potency on JNK was measured by IC50 value generated from ten concentration inhibition curves fitted into the 3-parameter model: % inhibition=Maximum/(1+(IC50/[Inhibitor])^slope). Data were analyzed on Microsoft Excel for parameter estimation.

[2] = target: Human JNK2α2 (Homo sapiens, UniProt P45984); assay: as above; type: biochemical; details: 1 nM enzyme, 1 μM ATF2, 8 μM ATP (Km), 30° C. for 30 min, ten concentration curves; read-out: IC50 JNK2
Procedure: as §1

Human JNK2α2, sequence (P45984 whole entry): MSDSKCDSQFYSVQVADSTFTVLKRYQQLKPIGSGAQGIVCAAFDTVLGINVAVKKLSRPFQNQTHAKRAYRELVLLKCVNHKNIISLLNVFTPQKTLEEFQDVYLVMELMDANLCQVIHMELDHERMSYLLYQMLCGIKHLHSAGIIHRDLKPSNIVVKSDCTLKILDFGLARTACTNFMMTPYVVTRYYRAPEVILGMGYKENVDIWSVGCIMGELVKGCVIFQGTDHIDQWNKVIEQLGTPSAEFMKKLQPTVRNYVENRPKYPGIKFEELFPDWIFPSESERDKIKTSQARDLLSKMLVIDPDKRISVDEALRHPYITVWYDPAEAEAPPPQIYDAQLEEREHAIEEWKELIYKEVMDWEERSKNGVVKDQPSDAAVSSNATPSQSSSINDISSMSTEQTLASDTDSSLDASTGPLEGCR
Human JNK1α1, sequence (P45983 1-384 isoform P45983-2): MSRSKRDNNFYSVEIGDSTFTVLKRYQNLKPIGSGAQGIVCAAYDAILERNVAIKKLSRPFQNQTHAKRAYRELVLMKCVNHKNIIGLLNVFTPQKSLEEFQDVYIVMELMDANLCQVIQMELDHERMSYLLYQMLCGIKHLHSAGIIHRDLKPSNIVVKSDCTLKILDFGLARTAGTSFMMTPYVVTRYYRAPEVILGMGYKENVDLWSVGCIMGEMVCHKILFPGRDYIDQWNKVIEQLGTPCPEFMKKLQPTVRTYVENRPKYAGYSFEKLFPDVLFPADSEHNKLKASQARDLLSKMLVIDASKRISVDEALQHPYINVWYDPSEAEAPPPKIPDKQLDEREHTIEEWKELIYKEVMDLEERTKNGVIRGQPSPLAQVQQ

IC50 [1] [nM] | IC50 [2] [nM] | melting point [°C] | SMILES
34.4 | 37.7 | 276.6 to 278.4 | Cc1c(N)c2cnc(N[C@H]3CC[C@H](C(=O)N4CCCC4)CC3)nc2n(C2CCC2)c1=O [Compound I-9, 5-Amino-8-cyclobutyl-6-methyl-2-[4-(pyrrolidine-1-carbonyl)-cyclohexylamino]-8H-pyrido[2,3-d]pyrimidin-7-one]
 |  | 133 to 135 | Nc1cc(=O)n(CC2CC2)c2nc(NC3CCCCC3)ncc12 [Compound I-12, 5-Amino-2-cyclohexylamino-8-cyclopropylmethyl-8H-pyrido[2,3-d]pyrimidin-7-one]
 |  | 225 to 226 | Cc1c(N)c2cnc(NC3CCCCC3)nc2n([C@@H]2CCOC2)c1=O [Compound I-44, 5-Amino-2-cyclohexylamino-6-methyl-8-(R)-tetrahydro-furan-3-yl-8H-pyrido[2,3-d]pyrimidin-7-one]

Further lines, the molecule ahead of its results:

SMILES | IC50 [1] [nM] | IC50 [2] [nM] | melting point [°C]
Nc1cc(=O)n([C@@H]2CC[C@@H](O)C2)c2nc(NC3CCCCC3)ncc12 (racemic) [Compound I-1, 5-Amino-2-cyclohexylamino-8-((1R,3R)-3-hydroxy-cyclopentyl)-8H-pyrido[2,3-d]pyrimidin-7-one] | 11.1 | 25.8 | 169.5 to 170
Nc1cc(=O)n(C2CCC2)c2nc(NC3CCCCC3)ncc12 [Compound I-3, 5-Amino-8-cyclobutyl-2-cyclohexylamino-8H-pyrido[2,3-d]pyrimidin-7-one] | 17.9 | 40.3 | 120 to 121.5
Nc1cc(=O)n(C2CCCC2)c2nc(N[C@H]3CC[C@H](O)CC3)ncc12 [Compound I-5, 5-Amino-8-cyclopentyl-2-(4-hydroxy-cyclohexylamino)-8H-pyrido[2,3-d]pyrimidin-7-one] | 20.5 | 43.9 | 246.5 to 248
Nc1cc(=O)n(C2CCCCC2)c2nc(N[C@H]3CC[C@H](C(=O)N4CCOCC4)CC3)ncc12 [Compound I-7, 5-Amino-8-cyclohexyl-2-[4-(morpholine-4-carbonyl)-cyclohexylamino]-8H-pyrido[2,3-d]pyrimidin-7-one] | 31.6 | 39.7 | 185 to 203
